Tests used:
Assay in all cases: NCI-60 screen (SRB)
Assay type in all cases: cell-based
786-0 = conditions: Homo sapiens; 786-0, Renal Cancer
Experimental: (§1) The human tumor cell lines of the cancer screening panel are grown in RPMI 1640 medium containing 5% fetal bovine serum and 2 mM L-glutamine. For a typical screening experiment, cells are inoculated into 96 well microtiter plates in 100 μL at plating densities ranging from 5,000 to 40,000 cells/well depending on the doubling time of individual cell lines. After cell inoculation, the microtiter plates are incubated at 37° C., 5% CO2, 95% air and 100% relative humidity for 24 h prior to addition of experimental drugs. After 24 h, two plates of each cell line are fixed in situ with TCA, to represent a measurement of the cell population for each cell line at the time of drug addition (Tz). Experimental drugs are solubilized in dimethyl sulfoxide at 400-fold the desired final maximum test concentration and stored frozen prior to use. At the time of drug addition, an aliquot of frozen concentrate is thawed and diluted to twice the desired final maximum test concentration with complete medium containing 50 µg/ml gentamicin. An additional four, 10-fold or M log serial dilutions are made to provide a total of five drug concentrations plus control. Aliquots of 100 μl of these different drug dilutions are added to the appropriate microtiter wells already containing 100 μl of medium, resulting in the required final drug concentrations. Following drug addition, the plates are incubated for an additional 48 h at 37° C., 5% CO2, 95% air, and 100% relative humidity. For adherent cells, the assay is terminated by the addition of cold TCA. Cells are fixed in situ by the gentle addition of 50 μl of cold 50% (w/v) TCA (final concentration, 10% TCA) and incubated for 60 minutes at 4° C. The supernatant is discarded, and the plates are washed five times with tap water and air dried. Sulforhodamine B (SRB) solution (100 l) at 0.4% (w/v) in 1% acetic acid is added to each well, and plates are incubated for 10 minutes at room temperature. After staining, unbound dye is removed by washing five times with 1% acetic acid and the plates are air dried. Bound stain is subsequently solubilized with 10 mM trizma base, and the absorbance is read on an automated plate reader at a wavelength of 515 nm. For suspension cells, the methodology is the same except that the assay is terminated by fixing settled cells at the bottom of the wells by gently adding 50 μl of 80% TCA (final concentration, 16% TCA).

A498 = conditions: Homo sapiens; A498, Renal Cancer
Experimental: as §1

A549/ATCC = conditions: Homo sapiens, Non-Small Cell Lung Cancer
Experimental: as §1

ACHN = conditions: Homo sapiens, Renal Cancer
Experimental: as §1

CAKI-1 = conditions: Homo sapiens; CAKI-1, Renal Cancer
Experimental: as §1

DU-145 = conditions: Homo sapiens; DU-145, Prostate Cancer
Experimental: as §1

EKVX = conditions: Homo sapiens, Non-Small Cell Lung Cancer
Experimental: as §1

HCT-116 = conditions: Homo sapiens; HCT-116, Colon Cancer
Experimental: as §1

HCT-15 = conditions: Homo sapiens; HCT-15, Colon Cancer
Experimental: as §1

HOP-92 = conditions: Homo sapiens; HOP-92, Non-Small Cell Lung Cancer
Experimental: as §1

HT29 = conditions: Homo sapiens, HT-29; HT29, Colon Cancer
Experimental: as §1

IGROV1 = conditions: Homo sapiens, IGROV-1; IGROV1, Ovarian Cancer
Experimental: as §1

M14 = conditions: Homo sapiens; M14, Melanoma
Experimental: as §1

MALME-3M = conditions: Homo sapiens, Melanoma
Experimental: as §1

MDA-MB-231/ATCC = conditions: Homo sapiens, Breast Cancer
Experimental: as §1

MDA-MB-468 = conditions: Homo sapiens; MDA-MB-468, Breast Cancer
Experimental: as §1

NCI-H226 = conditions: Homo sapiens; NCI-H226, Non-Small Cell Lung Cancer
Experimental: as §1

NCI/ADR-RES = conditions: Homo sapiens, Ovarian Cancer
Experimental: as §1

OVCAR-3 = conditions: Homo sapiens; OVCAR-3, Ovarian Cancer
Experimental: as §1

OVCAR-4 = conditions: Homo sapiens; OVCAR-4, Ovarian Cancer
Experimental: as §1

SK-MEL-28 = conditions: Homo sapiens; SK-MEL-28, Melanoma
Experimental: as §1

SK-MEL-2 = conditions: Homo sapiens; SK-MEL-2, Melanoma
Experimental: as §1

SK-MEL-5 = conditions: Homo sapiens; SK-MEL-5, Melanoma
Experimental: as §1

SK-OV-3 = conditions: Homo sapiens; SK-OV-3, Ovarian Cancer
Experimental: as §1

SN12C = conditions: Homo sapiens, Renal Cancer
Experimental: as §1

T-47D = conditions: Homo sapiens, T47D, Breast Cancer
Experimental: as §1

TK-10 = conditions: Homo sapiens; TK-10, Renal Cancer
Experimental: as §1

UACC-257 = conditions: Homo sapiens; UACC-257, Melanoma
Experimental: as §1

UACC-62 = conditions: Homo sapiens; UACC-62, Melanoma
Experimental: as §1

Structure (SMILES) | GI50 (786-0) | GI50 (A498) | GI50 (A549/ATCC) | GI50 (ACHN) | GI50 (CAKI-1) | GI50 (DU-145) | GI50 (EKVX) | GI50 (HCT-116) | GI50 (HCT-15) | GI50 (HOP-92) | GI50 (HT29) | GI50 (IGROV1) | GI50 (M14) | GI50 (MALME-3M) | GI50 (MDA-MB-231/ATCC) | GI50 (MDA-MB-468) | GI50 (NCI-H226) | GI50 (NCI/ADR-RES) | GI50 (OVCAR-3) | GI50 (OVCAR-4) | other results
COc1cc2nccc(Oc3ccc(NC(=O)C4(C(=O)Nc5ccc(F)cc5)CC4)cc3F)c2cc1Oc1ccc(N)cc1F [Cbo-23] | 860 nM | 459 nM | 325 nM | 292 nM | 192 nM | 429 nM | 389 nM | 592 nM | 315 nM | < 10 nM | 2150 nM | 264 nM | 459 nM | 298 nM | 981 nM | 1120 nM | 276 nM | 2040 nM | 829 nM | 2580 nM | GI50 (SK-MEL-28): 463 nM; GI50 (SK-MEL-2): 1360 nM; GI50 (SK-MEL-5): 1380 nM; GI50 (SK-OV-3): 464 nM; GI50 (SN12C): 199 nM; GI50 (T-47D): 617 nM; GI50 (TK-10): 224 nM; GI50 (UACC-257): 367 nM; GI50 (UACC-62): 112 nM
COc1cc2nccc(Oc3ccc(NC(=O)C4(NC(=O)c5ccc(F)cc5)CC4)cc3F)c2cc1Oc1ccc(N)cc1F [Cbo-10] | > 100000 nM | > 100000 nM | 483 nM | 683 nM | 276 nM | 1700 nM | 488 nM | 2630 nM | 2410 nM | 141 nM | 413 nM | 714 nM | 1490 nM | 313 nM | 4430 nM | 1730 nM | 5290 nM | > 100000 nM | > 100000 nM | > 100000 nM | GI50 (SK-MEL-28): 1810 nM; GI50 (SK-MEL-2): > 100000 nM; GI50 (SK-MEL-5): 6970 nM; GI50 (SK-OV-3): 302 nM; GI50 (SN12C): 111 nM; GI50 (T-47D): 1650 nM; GI50 (TK-10): 455 nM; GI50 (UACC-257): 1720 nM; GI50 (UACC-62): 915 nM
COc1cc2nccc(Oc3ccc(NC(=O)C4(NC(=O)c5ccc(F)cc5)CC4)cc3F)c2cc1OC [Cbo-02, N-(1-((4-((6,7-diMethoxyquinolin-4-yl)oxy)-3-fluorophenyl)carbamoyl)cyclopropyl)-4-fluorobenzamide] | 1980 nM | 3280 nM | 3270 nM | 2140 nM | 1540 nM | 3360 nM | 1030 nM | 1520 nM | 2980 nM | 1260 nM | 1820 nM | 4480 nM | 1910 nM | 1740 nM | 1740 nM | 1720 nM | 1580 nM | 4900 nM | 2400 nM | 2380 nM | GI50 (SK-MEL-28): 1610 nM; GI50 (SK-MEL-2): 6150 nM; GI50 (SK-MEL-5): 4010 nM; GI50 (SK-OV-3): 2270 nM; GI50 (SN12C): 1210 nM; GI50 (T-47D): 2120 nM; GI50 (TK-10): 1830 nM; GI50 (UACC-257): 2830 nM; GI50 (UACC-62): 1840 nM
